Entries after “also recorded” stand apart in the source; their conditions may differ.
How the values were obtained:
[1] = target: T1, CYP17A1 (Homo sapiens, UniProt P05093); assay: Ligand binding assay (UV-visible difference spectra titration); details: for Soret peak after titration (heme spectral shift from 417 nm water-bound): ferric CYP17A1, 430 nm = Fe—C isonitrile bond, 424 nm = type II Fe—N
T1 construct: made in house
T1 sequence (P05093 1-508): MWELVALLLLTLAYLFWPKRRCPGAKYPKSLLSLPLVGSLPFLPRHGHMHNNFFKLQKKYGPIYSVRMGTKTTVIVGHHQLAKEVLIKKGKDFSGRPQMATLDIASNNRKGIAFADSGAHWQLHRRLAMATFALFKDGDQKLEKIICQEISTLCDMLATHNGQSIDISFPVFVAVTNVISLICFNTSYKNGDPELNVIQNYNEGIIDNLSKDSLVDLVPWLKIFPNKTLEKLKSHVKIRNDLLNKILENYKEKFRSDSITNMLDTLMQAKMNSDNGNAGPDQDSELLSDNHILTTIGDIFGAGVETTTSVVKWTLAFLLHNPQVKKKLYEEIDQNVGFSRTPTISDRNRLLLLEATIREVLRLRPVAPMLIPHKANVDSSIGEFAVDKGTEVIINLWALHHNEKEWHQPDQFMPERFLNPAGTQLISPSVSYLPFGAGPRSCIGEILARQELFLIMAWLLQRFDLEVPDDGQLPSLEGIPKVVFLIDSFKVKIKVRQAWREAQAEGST
Experimental: (§1) (Adapted from DeVore, et al.)[25] Ligand interaction with the heme iron was evaluated by titrating ligands into a cuvette containing purified CYP17A1[14], CYP2D6 L230D/L231R[26], or CYP3A4[27] and measured using a UV-visible scanning spectrophotometer. Enzyme was diluted to 0.2 µM in 100 mM potassium phosphate buffer (pH 7.4), 20% glycerol, and 100 mM sodium chloride and divided equally between two 5 mL cuvettes to evaluate high-affinity binding. Ligands dissolved in dimethylsulfoxide (DMSO) were added to the sample cuvette and an equal volume of DMSO to the reference cuvette. Difference spectra were recorded from 300 to 500 nm after equilibration of enzyme and ligand. Binding to the enzyme was measured as the difference in maximal and minimal absorbance: A387—A419 for pregnanolone and 3-formyl pregnanolone, and A435—A393 for compound 1 with CYP17A1; A434—A414 for compound 1 with CYP3A4 and CYP2D6. The dissociation constant and maximum spectral change were calculated using tight-binding or quadratic equation. All data fitting was accomplished using GraphPad Prism 9. Details of fitting are provided in Supplementary Information, and numerical data used to generate graphs in Figs. 2, 4 and 5 are provided in Supplementary Data 3 in Excel format.

[2] = target: T2, CYP17A1 (Homo sapiens, UniProt P05093); assay: biochemical
T2 construct: made in house
T2 sequence (P05093 24-508 limits assumed): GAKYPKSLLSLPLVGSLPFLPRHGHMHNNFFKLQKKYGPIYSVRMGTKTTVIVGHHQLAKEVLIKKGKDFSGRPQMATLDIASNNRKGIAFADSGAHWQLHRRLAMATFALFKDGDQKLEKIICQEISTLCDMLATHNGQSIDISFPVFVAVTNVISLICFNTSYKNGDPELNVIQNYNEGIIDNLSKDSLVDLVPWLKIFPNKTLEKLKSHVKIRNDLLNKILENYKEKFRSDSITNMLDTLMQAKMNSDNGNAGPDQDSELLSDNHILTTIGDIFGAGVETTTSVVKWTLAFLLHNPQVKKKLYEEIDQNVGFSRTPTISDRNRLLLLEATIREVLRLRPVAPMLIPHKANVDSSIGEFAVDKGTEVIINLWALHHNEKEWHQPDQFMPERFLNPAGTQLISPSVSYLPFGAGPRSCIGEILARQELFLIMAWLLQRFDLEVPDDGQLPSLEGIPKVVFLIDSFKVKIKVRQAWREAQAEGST
Experimental: Metabolic activity of CYP17A1 was evaluated by measuring 17α-hydroxylation of progesterone as detected by HPLC with UV detection at 240 nm. A 1:4 ratio of CYP17A1 to recombinant NADPH-cytochrome P450 reductase was mixed and incubated on ice for 20 min. […] Reaction vials were warmed to 37 °C for 3 min, then catalysis was initiated by adding NADPH to a final concentration of 1 mM. After 10 min, metabolism was quenched by adding 300 µL of 20% trichloroacetic acid and placed on ice. The reaction vials were centrifuged to pellet the precipitated protein, then the supernatant was injected onto a C18 column for HPLC identification of product. Metabolite elution was normalized to β-estradiol as an internal standard. A standard curve of known product concentrations was used to convert normalized area under curve to amount of product produced. A four-parameter variable-slope equation was used to fit the data and calculate IC50 values for inhibitors using GraphPad Prism 9.
195 Metabolic activity of CYP17A1 was evaluated by measuring 17α-hydroxylation of progesterone as detected
196 by HPLC with UV detection at 240 nm. A 1:4 ratio of CYP17A1 to recombinant NADPH-cytochrome P450
197 reductase was mixed and incubated on ice for 20 minutes. This mixture was added to buffer (50 mM Tris, pH
199 Reaction vials were warmed to 37 °C for three minutes, then catalysis was initiated by adding NADPH to a
200 final concentration of 1 mM. After 10 minutes, metabolism was quenched by adding 300 µL of 20%
201 trichloroacetic acid and placed on ice. The reaction vials were centrifuged to pellet the precipitated protein,
202 then the supernatant was injected onto a C18 column (Phenomenex, Luna, 50 x 4.6 mm) for HPLC. The 30-
203 minute HPLC method ran at 0.8 mL/min and started with a mobile phase of 60% acetonitrile, 40% water with
204 0.2% acetic acid for five minutes, in creased to 80% acetonitrile over 10 minutes, held at 80% acetonitrile for
205 five minutes, 100% acetonitrile for five minutes, then returned to 60% acetonitrile to prepare for the next
206 sample. Metabolite elution was normalized to β-estradiol as an internal standard. A standard curve of known
207 product concentrations was used to convert normalized area under curve to amount of product produced. A
208 four-parameter variable-slope equation (Y=Ymin + (Ymax-Ymin)/(1+(IC50/X)^(Hill Slope))) was used to fit the data
209 and calculate IC50 values for inhibitors using GraphPad Prism 9.

[3] = target: T3, CYP3A4 (Homo sapiens, UniProt P08684); assay: in vitro; assay type: binding
T3 construct: made in house
Experimental: as §1

[4] = target: CYP106A2 (Priestia megaterium, UniProt Q06069); assay: Absorbance difference spectra titration of CYP106A2; assay type: binding, bacterial; details: 1 µM CYP106A2; for difference spectrum increase / λmax on binding to CYP106A2: 393 nm = type I, 435 nm = heme Fe-isonitrile bond
Experimental: Fig. 5 CYP106A2 interaction with steroidal isonitriles. […] Maximum concentration of 2 (light blue trace) is 20 µM. […] Maximum concentration of 4 is ~10 µM (blue trace). C Overlay of 800 MHz ^1H,^15N-TROSY-HSQC spectra of ^15N-Gly-labeled CYP106A2 with levopimaric acid p-benzoquinone Diels-Alder adduct bound after reduction with sodium dithionite and treatment with carbon monoxide (red), or with 7,17-(bis)isonitrile 4 (blue) after anaerobic reduction with sodium dithionite.

Sequence of CYP106A2 (Q06069 whole entry): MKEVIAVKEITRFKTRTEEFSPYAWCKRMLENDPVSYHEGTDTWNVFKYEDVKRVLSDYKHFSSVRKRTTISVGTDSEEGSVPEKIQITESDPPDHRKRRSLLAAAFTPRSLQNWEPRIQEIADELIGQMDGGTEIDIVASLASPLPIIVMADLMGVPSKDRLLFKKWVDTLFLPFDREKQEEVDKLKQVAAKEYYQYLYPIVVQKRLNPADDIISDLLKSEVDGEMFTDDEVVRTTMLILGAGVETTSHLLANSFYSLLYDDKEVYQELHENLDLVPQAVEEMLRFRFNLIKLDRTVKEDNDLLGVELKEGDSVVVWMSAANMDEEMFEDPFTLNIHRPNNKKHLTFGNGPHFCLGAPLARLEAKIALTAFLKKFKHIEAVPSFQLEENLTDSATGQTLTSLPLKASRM
T3 sequence (P08684 whole entry): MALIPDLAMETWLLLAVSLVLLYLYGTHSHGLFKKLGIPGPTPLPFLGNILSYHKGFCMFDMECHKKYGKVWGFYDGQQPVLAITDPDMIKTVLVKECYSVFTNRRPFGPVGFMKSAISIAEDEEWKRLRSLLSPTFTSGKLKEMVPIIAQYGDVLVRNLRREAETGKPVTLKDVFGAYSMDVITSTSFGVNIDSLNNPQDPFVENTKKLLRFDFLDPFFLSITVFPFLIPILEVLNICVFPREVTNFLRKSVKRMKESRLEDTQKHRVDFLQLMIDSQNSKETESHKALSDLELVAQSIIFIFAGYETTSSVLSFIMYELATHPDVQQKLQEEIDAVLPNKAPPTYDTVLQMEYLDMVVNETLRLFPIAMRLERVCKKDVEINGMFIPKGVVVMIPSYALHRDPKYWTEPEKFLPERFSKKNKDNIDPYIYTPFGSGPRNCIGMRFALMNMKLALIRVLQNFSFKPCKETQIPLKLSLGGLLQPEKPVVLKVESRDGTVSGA

Compound	Soret peak after titration (heme spectral shift from 417 nm water-bound) [1]	spectral response / binding mode on CYP106A2 [4]	difference spectrum increase / λmax on binding to CYP106A2 [4]	other results
C[C@]12CC[C@H](O)CC1=CC[C@@H]1[C@@H]2CC[C@]2(C)C(c3cccnc3)=CC[C@@H]12 [abiraterone]	424 nm			Kd ([1]; protein 200 nM, 95% CI undefined to 3.8 nM, read-out: dissociation constant estimate (tight binding equation fit)): 0.044 nM; slope of the inhibition curve ([2]; CYP17A1 progesterone hydroxylation): 1.1; IC50 fold lower than for 1 ([2]; abiraterone versus 1): 27 fold; IC50 ([2]; triplicate, four-parameter variable-slope fit, read-out: IC50, CYP17A1 progesterone hydroxylation): 47 nM
CC(=O)[C@H]1CC[C@H]2[C@@H]3CC[C@H]4C[C@@H](OC=O)CC[C@]4(C)[C@H]3CC[C@]12C [3β-formyl-5α-pregnanalone, reference compound]				Kd fold higher than 20-(R)-1 ([3]; CYP3A4, parent steroid versus 20-(R)-1): ~ 20 fold; Kd ([3]; protein 200 nM, 5 cm cuvette, tight-binding or quadratic equation, Fig. 4B: n = 3, 95% CI 120–215 nM, read-out: dissociation constant (Kd)): ~3200 nM
[C-]#[N+][C@H]1CC[C@H]2[C@@H]3CC[C@H]4C[C@@H](OC=O)CC[C@]4(C)[C@H]3CC[C@]12C [Compound 2]	420 nm	weak type I (substrate-like) blue shift	393 nm	
[C-]#[N+][C@H]1CC[C@H]2[C@@H]3CC=C4C[C@@H](OC=O)CC[C@]4(C)[C@H]3CC[C@]12C [Compound 3]			393 nm	
[C-]#[N+]C1C=C2C[C@@H](OC=O)CC[C@]2(C)[C@H]2CC[C@]3(C)[C@@H]([N+]#[C-])CC[C@H]3[C@H]12 (stereo partly shown) [Compound 4]		does form an iron-isonitrile bond; also recorded: bind with the shift expected for Fe—CN—R bond formation	435 nm	

From publication PMC10475101, “Selective steroidogenic cytochrome P450 haem iron ligation by steroid-derived isonitriles” (Communications Chemistry, 2023)
